Laboratory results from US20160361250A1, “ACTIVE INGREDIENTS STIMULATING TYPE 2 AND/OR TYPE 3 HUMAN BETA-DEFENSINS AND COSMETIC OR PHARMACEUTICAL COMPOSITIONS CONTAINING SUCH ACTIVE INGREDIENTS” (BASF Beauty Care Solutions France S.A.S., priority 2002, published 2016).
Where “and” joins values, the source holds several entries; their conditions need not be identical. Equal entries are not always repeated.

Experiments:
IL8 [1] = assay: ELISA of IL8 secreted into the culture medium, 1st step; format: cell-based, human; conditions: keratinocyte supernatant, 16 h
Description: (§1) At the end of this first step, the actives having exerted an effect on β-defensin expression are selected and the supernatants corresponding to these actives are then tested using an ELISA kit in order to determine the levels of MIP3α, IL1 and IL8 secreted into the culture medium under the effect of the actives. The levels are then referred to the RNA concentration assayed in each well in order to compare results with each other.
(§2) Since the basal level of defensin expression is generally not detectable, stimulation of hBD2 and hBD3 is expressed as a percentage of the positive controls (TNFα for hBD2 and IFNγ for hBD3). IL8 and MIP3α levels are given as pg/mL/RNA concentration (in ng/μL).

hBD3 [2] = assay: Qualitative RT-PCR of hBD3 expression, 1st step of the screening method; format: cell-based; conditions: normal human keratinocytes, 16 h
Description: (§3) At 80% confluence, cells are contacted with the actives (1 active per well) for 16 h. An untreated control and 2 positive controls (TNFα 100 ng/mL for hBD2 and IFNγ 100 ng/mL for hBD3) are set up in parallel on the same culture plate.
(§4) After 16 h, the supernatants are collected and cells are dry frozen at −80° C. after rinsing in PBS.
(§5) Total RNA are extracted using a 96-well extraction kit on silica columns and assayed using a 96-well spectrophotometer at 260 and 280 nm. RNA are diluted to 5 ng/mL.
(§6) Qualitative one-step RT-PCR is performed on 50 ng of initial RNA in 96 wells, on actin, hBD2 and hBD3. The primers are used at a concentration of 0.5 μM and arc taken from the literature:—hBD2: sense: 5′-[…]-3′; hBD2 antisense 5′-[…]-3′ (Harder J. et al., A peptide antibiotic from human skin. Nature 1997; 387 : 861); hBD3 sense: 5′-[…]-3′; hBD3 antisense: 5′-[…]-3′; actin sense: 5′-[…]-3′; actin antisense: 5′-[…]-3′ (Harder J. et al., Isolation and characterization of human β-defensin-3, a novel human inducible peptide antibiotic. J Biol Chem 2001, 276 : 5707-5713).
(§7) Samples are placed in a thermocycler and follow a common amplification program: 50° C., 30 min; 94° C., 2 min, (94° C., 30 s; 60° C., 30 s; 68° C., 30 s), 32 cycles for the defensins and 30 cycles for actin; 72° C., 10 min; 14° C., infinite.
(§8) After amplification, the products are mixed at a rate of 3 μL of actin amplification products+6 μL of hBD2 amplification products+6 μL of hBD3 amplification products. 5 μL of a mixture of charge buffer and water (⅔) are added and the final 20 μL are deposited on 2% premoulded agarose gel. The samples migrate in 30 minutes and the bands are visualised under UV in a dark room then digitally photographed.
(§9) Photos of the gels are analysed by image processing software which quantifies the intensity of the bands. As the basal level of defensin expression (untreated control) is not detectable, the intensity ratios of the hBD2/actin and hBD3/actin bands can be compared, for example with those obtained for the positive control (treated with TNFα for hBD2 and IFNγ for hBD3) and indicate any stimulation of the expression of the β-defensin in question
as §2

MIP3α [3] = assay: ELISA of MIP3α secreted into the culture medium, 1st step; format: cell-based, human; conditions: 100 μg/mL; keratinocyte supernatant, 16 h
Description: as §1, §2

hBD2 [4] = assay: Qualitative RT-PCR of hBD2 expression, 1st step of the screening method; format: cell-based; conditions: normal human keratinocytes, 16 h
Description: (§10) A 1% concentration of the actives is tested on normal human keratinocytes, as a monolayer, on 96-well culture plates, in a specific medium enriched with calcium and free of serum (final concentration 1.7 mM).
as §3, §4, §5, §6, §7, §8, §9, §2

IL1α = assay: ELISA of IL1α in supernatants, 2nd step; format: cell-based, human; conditions: supernatant, 16 h
Description: (§11) The supernatants of the actives, whose capacity to induce defensins has been confirmed, are tested using an ELISA kit in order to assay MIP3α, IL8 and IL1α levels. These assays are performed on the same supernatant (200 μL) by carrying out a series dilution (by 1.5 to assay MIP3α and IL8, then by 2 to assay IL1). The levels are then referred to the RNA concentration assayed in each well in order to compare results with each other.
(§12) Quantitative RT-PCR makes it possible to obtain a basal value for the defensin expression for untreated controls. The results are therefore expressed as a percentage of the control. IL8, IL1 and MIP3 cytokine levels are given as pg/mL/RNA concentration (in ng/μL).

hBD2 [5] = assay: Quantitative RT-PCR of hBD2 expression, 2nd step (dose-effect); format: cell-based, human; conditions: 16 h, untreated control = 100%
Description: (§13) The actives are then tested on 5 concentrations (from 0.001% to max viability) in quadruplicate on normal human keratinocytes as a monolayer on 96-well culture plates, in a specific medium enriched with calcium and free of serum (CaCl2 1.7 mM) (same conditions as in example 1).
as §4
(§14) Total RNA are extracted using a 96-well extraction kit on silica columns and assayed using a 96-well spectrophotometer at 260 and 280 nm. RNA are diluted to 5 ng/μL.
(§15) Quantitative RT-PCR in 96 wells on actin, hBD2 and hBD3 is initially carried out on 50 ng of RNA, using a one-step kit containing Sybrgreen, in a fluorescence thermocycler with the same primers as previously (0.5 μM). The amplification program is as follows: 50° C., 30 min; 94° C., 15 min; (94° C., 15 s; 60° C., 30 s; 72° C., 30 s)×50 cycles; 90° C., 1 min; 30° C., 1 min; 50° C. to 95° C. (10 s every ° C.); 14° C., infinite.
(§16) A study of the fusion graphs makes it possible to verify the specificity of amplified products. The fluorescence graph as a function of the number of cycles gives the C(T) value corresponding to the number of cycles needed to obtain initiation of the fluorescence signal. The more an mRNA is expressed, the lower the C(T) value. Calculation of Sgene=(½)^C(T) for each RNA takes into consideration the exponential increase in the number of copies during amplification. The Sgene hBD2/Sgene actin and Sgene hBD3/Sgene actin ratios can be compared with those of the untreated control to give the percentage stimulation produced.
as §12
(§17) In the same way as in example 2, retinoic acid and retinol were tested for their capacity to stimulate hBD2 and/or hBD3.

hBD3 [6] = assay: Quantitative RT-PCR of hBD3 expression, 2nd step (dose-effect); format: cell-based, human; conditions: 16 h, untreated control = 100%
Description: as §13, §4, §14, §15, §16, §12, §17

IL8 [7] = assay: ELISA of IL8 in supernatants, 2nd step; format: cell-based, human; conditions: supernatant, 16 h
Description: as §11, §12

MIP3α [8] = assay: ELISA of MIP3α in supernatants, 2nd step; format: cell-based, human; conditions: supernatant, 16 h
Description: as §11, §12

hBD2 and/or hBD3 [9] = assay: 2nd step of the screening method, overall outcome (quantitative RT-PCR plus MIP3α/IL8/IL1α ELISA); format: cell-based, human; conditions: 3.125, 6.25, 12.5 and 25 μg/mL
Description: The actives which best satisfied the criteria for the first step undergo a dose-effect analysis.
as §13, §4, §14, §15, §16
The supernatants of the actives, whose capacity to induce defensins has been confirmed, are tested using an ELISA kit in order to assay MIP3α, IL8 and IL1α levels. These assays are performed on the same supernatant (200 μL) by carrying out a series dilution (by 1.5 to assay MIP3α and IL8, then by 2 to assay IL1). […]

hBD2 and/or hBD3 [10] = assay: 1st step of the screening method, overall outcome (defensin RT-PCR plus MIP3α/IL8 ELISA); format: cell-based, human; conditions: first step
Description: as §10, §3, §4, §5
Qualitative one-step RT-PCR is performed on 50 ng of initial RNA in 96 wells, on actin, hBD2 and hBD3. The primers are used at a concentration of 0.5 μM and arc taken from the literature:—hBD2: sense: 5′-[…]-3′; hBD2 antisense 5′-[…]-3′ (Harder J. et al., A peptide antibiotic from human skin. Nature 1997; 387 : 861); hBD3 sense: 5′-[…]-3′; hBD3 antisense: 5′-[…]-3′; actin sense: 5′-[…]-3′; actin antisense: 5′-[…]-3′ (Harder J. et al., Isolation and characterization of human β-defensin-3, a novel human inducible peptide antibiotic. J Biol Chem 2001, 276 : 5707-5713). […]
Photos of the gels are analysed by image processing software which quantifies the intensity of the bands. […]

CC[C@H](C)[C@H](N)C(=O)OC [Isoleucine Methyl ester]
IL8 level (IL8 [1]; 100 μg/mL): 7.7 pg/mL/RNA concentration (in ng/μL)
HBD3 expression, percentage of the positive control (IFNγ) (hBD3 [2]; 100 μg/mL): 6%
MIP3α level (MIP3α [3]): 3.8 pg/mL/RNA concentration (in ng/μL)
HBD2 expression, percentage of the positive control (TNFα) (hBD2 [4]; 100 μg/mL): 16%

TNFα
IL8 level (IL8 [1]; 100 ng/mL (positive control)): 186 pg/mL/RNA concentration (in ng/μL) and 97 pg/mL/RNA concentration (in ng/μL)
IL1α level (IL1α; conc. 100 ng/mL): 21.8 pg/mL/RNA concentration (in ng/μL)
hBD2 expression, percentage of the control (hBD2 [5]; conc. 100 ng/mL): 1755%
hBD3 expression, percentage of the control (hBD3 [6]; conc. 100 ng/mL): 774%
HBD3 expression, percentage of the positive control (IFNγ) (hBD3 [2]; 100 ng/mL (positive control)): 100%
IL8 level (IL8 [7]; conc. 100 ng/mL): 175 pg/mL/RNA concentration (in ng/μL)
MIP3α level (MIP3α [8]; conc. 100 ng/mL): 23.6 pg/mL/RNA concentration (in ng/μL)
HBD2 expression, percentage of the positive control (TNFα) (hBD2 [4]; 100 ng/mL (positive control)): 100%

CC[C@H](C)[C@H](N)C(=O)O [L-Isoleucine]
IL1α level (IL1α; conc. 3.125 μg/mL): 21 pg/mL/RNA concentration (in ng/μL)
IL1α level (IL1α; conc. 6.25 μg/mL): 22.3 pg/mL/RNA concentration (in ng/μL)
IL1α level (IL1α; conc. 12.5 μg/mL): 25.3 pg/mL/RNA concentration (in ng/μL)
IL1α level (IL1α; conc. 25 μg/mL): 22.8 pg/mL/RNA concentration (in ng/μL)
hBD2 expression, percentage of the control (hBD2 [5]; conc. 3.125 μg/mL): 110%
hBD2 expression, percentage of the control (hBD2 [5]; conc. 6.25 μg/mL): 107%
hBD2 expression, percentage of the control (hBD2 [5]; conc. 12.5 μg/mL): 95%
hBD2 expression, percentage of the control (hBD2 [5]; conc. 25 μg/mL): 110%
hBD3 expression, percentage of the control (hBD3 [6]; conc. 3.125 μg/mL): 89%
hBD3 expression, percentage of the control (hBD3 [6]; conc. 6.25 μg/mL): 94%
hBD3 expression, percentage of the control (hBD3 [6]; conc. 12.5 μg/mL): 101%
hBD3 expression, percentage of the control (hBD3 [6]; conc. 25 μg/mL): 106%
HBD3 expression, percentage of the positive control (IFNγ) (hBD3 [2]; 10 μg/mL): 0%
IL8 level (IL8 [7]; conc. 3.125 μg/mL): 36.9 pg/mL/RNA concentration (in ng/μL)
IL8 level (IL8 [7]; conc. 6.25 μg/mL): 33.6 pg/mL/RNA concentration (in ng/μL)
IL8 level (IL8 [7]; conc. 12.5 μg/mL): 42.2 pg/mL/RNA concentration (in ng/μL)
IL8 level (IL8 [7]; conc. 25 μg/mL): 35.1 pg/mL/RNA concentration (in ng/μL)
MIP3α level (MIP3α [8]; conc. 3.125 μg/mL): 5.2 pg/mL/RNA concentration (in ng/μL)
MIP3α level (MIP3α [8]; conc. 6.25 μg/mL): 4.9 pg/mL/RNA concentration (in ng/μL)
MIP3α level (MIP3α [8]; conc. 12.5 μg/mL): 5.9 pg/mL/RNA concentration (in ng/μL)
MIP3α level (MIP3α [8]; conc. 25 μg/mL): 4.5 pg/mL/RNA concentration (in ng/μL)
HBD2 expression, percentage of the positive control (TNFα) (hBD2 [4]; 10 μg/mL): 0%
induction of hBD2 and hBD3 expression in normal human keratinocytes (in words) (hBD2 and/or hBD3 [9]): has not been found capable of inducing hBD2 and hBD3 expression
stimulation of human defensins 2 and 3 by qualitative RT-PCR (in words) (hBD2 and/or hBD3 [10]): no significant stimulation of human defensins 2 and 3

CC[C@H](C)[C@H](N)C(=O)O (racemic) [D,L-Isoleucine]
IL8 level (IL8 [1]; 100 μg/mL): 30.6 pg/mL/RNA concentration (in ng/μL)
HBD3 expression, percentage of the positive control (IFNγ) (hBD3 [2]; 100 μg/mL): 0%
MIP3α level (MIP3α [3]): 5.6 pg/mL/RNA concentration (in ng/μL)
HBD2 expression, percentage of the positive control (TNFα) (hBD2 [4]; 100 μg/mL): 0%

B1: IFNγ: gamma interferon, positive control for hBD3 stimulation, 100 ng/mL (protein, UniProt P01579 24-161, looked up)
Interferon gamma: QDPYVKEAENLKKYFNAGHSDVADNGTLFLGILKNWKEESDRKIMQSQIVSFYFKLFKNFKDDQSIQKSVETIKEDMNVKFFNSNKKKRDDFEKLTNYSVTDLNVQRKAIHELIQVMAELSPAAKTGKRKRSQMLFRG
IL1α level (IL1α; conc. 100 ng/mL): 40.1 pg/mL/RNA concentration (in ng/μL)
hBD2 expression, percentage of the control (hBD2 [5]; conc. 100 ng/mL): 472%
hBD3 expression, percentage of the control (hBD3 [6]; conc. 100 ng/mL): 4631%
IL8 level (IL8 [7]; conc. 100 ng/mL): 100.5 pg/mL/RNA concentration (in ng/μL)
MIP3α level (MIP3α [8]; conc. 100 ng/mL): 11.6 pg/mL/RNA concentration (in ng/μL)
